According to patent publication US10301630B2, “Methods and compositions for unsilencing imprinted genes” (The University of North Carolina at Chapel Hill, priority 2010, dated 2019):

Test system: paternal Ube3a allele in brain
Assay: Intracerebroventricular delivery, paternal Ube3a in brain
Type: in vivo, mouse
Method: In order to unsilence paternal Ube3a in vivo with an emphasis on brain, I.C.V. with osmotic minipump was performed. […] Paternal Ube3a-YFP mice were anesthetized with Ketamine/Xylazine (120 mg/kg; 9 mg/kg) and positioned in a stereotaxic head frame. The scalp is shaved and cut, and the skull exposed. The local anesthetic (Bupivacaine, 2.5 mg/ml) is applied on the top of skull and mineral oil is applied on the eyes of the mice. Acetone is applied on the skull to remove any lipid tissues on the skull as well as to dry the skull surface for optimal adhesion. Next, a cannula (Brain Infusion Kit 1, DURECT Corporation) is positioned into a lateral ventricle at the following coordinates (−0.3 mm A/P, +/−1.0 mm M/L, −3.0 mm D/V). The free end of the cannula is connected to an Alzet osmotic minipump via a 2.5-cm-long piece of polyethylene (PE) tubing (cat. no. 0007750, DURECT Corporation). […] The filled pumps are incubated in sterile saline at 37° C. for at least 4 to 6 hours for priming before being implanted under the dorsal skin of the mouse's back. A needle driver is used to create a subcutaneous pocket in the scapula region to accommodate filled pumps. The cannula base and the attached piece of PE tubing are fixed to the skull with loctite cyanoacrylic. The incision site is closed with prolene suture. During and after surgery, mice are placed on a heating pad. Body weight of mice is recorded daily to assess mouse health. Seven days following minipump implantation, mice are sacrificed following pentobarbital overdose (150 mg/kg, I.P.) and brains are removed for immunofluorescence staining or Western blot analysis.
For immunocytochemistry in brain tissues, mice were perfused with 4% PFA in 0.1M PBS, postfixed overnight, and cryoprotected with 20% sucrose in 0.1M phosphate buffer (PB), pH=7.4 for two days. 60 μm sections were collected and permeabilized with 0.3% Triton X-100 in 0.1M PB for 30 min, and blocked by 5% goat serum for 1 hr. Sections were incubated with rabbit polyclonal antibody to GFP (1:1000, Novus Biologicals, NB600-308) at 4° C. overnight and then incubated with Alexa Fluor 488 goat antibody to rabbit IgG and DAPI for 2 hr at room temperature. Images were acquired using a Zeiss LSM 510 and 710 confocal microscopes.
For optical intensity measurement in selected brain regions, sections were imaged using a Zeiss LSM 510 confocal microscope. With custom macros created using ImageJ software^34, optical intensity of UBE3A-YFP was measured in different regions of hippocampus and striatum from vehicle- and topotecan-treated mice. Image intensity levels were normalized to background intensities from appropriate regions in vehicle-treated mice. Brain sections between Bregma −1.22 mm and −2.06 mm were chosen for analysis (n=5 sections/mouse for hippocampus and n=3 to 5 sections/mouse for striatum).
Mice with paternal Ube3a-YFP (Ube3a^m+/pYFP) were anesthetized with ketamine/xylazine (120 mg/kg; 9 mg/kg) and positioned in a stereotaxic apparatus. The scalp was shaved and cut, and the skull exposed. The local anesthetic (bupivacaine, 2.5 mg/ml) was applied to the skull, and mineral oil was applied to protect the eyes of the mice. Acetone was applied on the skull to remove any lipid tissues on the skull as well as to dry the skull surface for optimal adhesion. Next, a cannula (Brain Infusion Kit 1, DURECT Corporation) was positioned into a lateral ventricle at the following coordinates (−0.3 mm A/P, +1.0 mm M/L, −2.5 mm DN), as described^40. The free end of the cannula was connected to a mini-osmotic pump (Alzet, Model 2001 or 2002) via a 2.5 cm piece of polyethylene (PE) tubing (DURECT Corporation). […] The filled pumps were incubated in sterile saline at 37° C. for at least 4 hr before being implanted under the dorsal skin of the mouse's back. The cannula base and the attached piece of PE tubing were fixed to the skull with Loctite cyanoacrylic 454. The incision site was closed with prolene suture. […]

Row | SMILES | Ube3a levels in Angelman syndrome model mice (i.c.v.) | mice with robust unsilencing in cerebral cortex near the infused ventricle (i.c.v. 3.74 μg/h for two weeks) | unsilencing of paternal Ube3a, cerebellum (i.c.v. 3.74 μg/h for two weeks) | unsilencing of paternal Ube3a, contralateral (non-infused) hemisphere (i.c.v. 3.74 μg/h for two weeks) | unsilencing of paternal Ube3a, infused hemisphere (i.c.v. 3.74 μg/h for two weeks, mini-osmotic pump) | unsilencing of paternal Ube3a, cerebellar Purkinje neurons (i.c.v. 21.6 μg/h for five days) | paternal Ube3a-YFP protein in brain after ICV infusion (Example 3) (i.c.v. osmotic minipump, one week)
1 | CCc1c2c(nc3ccc(OC(=O)N4CCC(N5CCCCC5)CC4)cc13)-c1cc3c(c(=O)n1C2)COC(=O)[C@]3(O)CC [Irinotecan] | significantly increased Ube3a levels |  |  |  |  |  | 
2 | CC[C@@]1(O)C(=O)OCc2c1cc1n(c2=O)Cc2cc3c(CN(C)C)c(O)ccc3nc2-1 [Topotecan] |  | two of five mice | no effect in the cerebellum | only a modest effect | unsilenced paternal Ube3a in the hippocampus, striatum, and cerebral cortex of the infused hemisphere | did unsilence the paternal allele of Ube3a in Purkinje neurons of the cerebellum | increased paternal Ube3a-YFP protein levels throughout the brain
